Tests used:
[1] = biological target: T1, STAT6 protein (Homo sapiens, UniProt P42226); experiment: Fluorescence polarization (FP) binding assay, STAT6; details: FP competition, 5 nM fluorescein-labeled tracer, 200 nM protein, PBS pH7.4; read-out: Binding STAT6
T1 sequence (P42226 1-847): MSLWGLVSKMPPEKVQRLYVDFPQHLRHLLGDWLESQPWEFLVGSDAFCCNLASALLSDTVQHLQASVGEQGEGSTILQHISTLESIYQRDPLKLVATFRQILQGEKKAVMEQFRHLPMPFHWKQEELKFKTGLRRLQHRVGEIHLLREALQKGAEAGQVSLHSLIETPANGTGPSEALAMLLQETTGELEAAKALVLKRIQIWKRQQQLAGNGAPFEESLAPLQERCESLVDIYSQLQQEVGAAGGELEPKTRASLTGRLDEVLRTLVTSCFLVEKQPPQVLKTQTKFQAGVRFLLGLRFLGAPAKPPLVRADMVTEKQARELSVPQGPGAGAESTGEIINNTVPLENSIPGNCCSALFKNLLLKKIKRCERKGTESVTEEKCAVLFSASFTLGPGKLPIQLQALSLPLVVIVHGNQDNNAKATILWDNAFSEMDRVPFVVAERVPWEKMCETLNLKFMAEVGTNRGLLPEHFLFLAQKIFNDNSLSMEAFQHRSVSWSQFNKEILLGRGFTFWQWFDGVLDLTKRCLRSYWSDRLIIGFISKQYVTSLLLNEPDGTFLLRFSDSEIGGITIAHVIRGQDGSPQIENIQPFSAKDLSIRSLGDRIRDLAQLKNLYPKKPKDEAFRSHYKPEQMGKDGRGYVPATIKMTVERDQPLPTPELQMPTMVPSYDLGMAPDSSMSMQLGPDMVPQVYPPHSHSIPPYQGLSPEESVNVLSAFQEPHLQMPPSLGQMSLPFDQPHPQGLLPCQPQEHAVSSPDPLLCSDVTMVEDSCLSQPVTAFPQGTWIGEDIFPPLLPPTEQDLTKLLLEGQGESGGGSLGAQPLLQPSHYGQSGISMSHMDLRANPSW
Outline: (§1)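 Tracer (fluorescein-labeled, 5 nM) was mixed with 200 nM STAT5 and/or STAT6 in PBS pH 7.4 plus 0.01% BGG, 0.01% Tween-20, 2 mM DTT. After 15 min shaking and 1 h at room temperature to equilibrium, polarization was measured and constants derived by nonlinear fitting.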

[2] = biological target: T2, STAT5A (Homo sapiens, UniProt P42229); experiment: Fluorescence polarization (FP) binding assay, STAT5A; details: FP competition, 5 nM fluorescein-labeled tracer, 200 nM protein, PBS pH7.4
T2 sequence (P42229 1-794): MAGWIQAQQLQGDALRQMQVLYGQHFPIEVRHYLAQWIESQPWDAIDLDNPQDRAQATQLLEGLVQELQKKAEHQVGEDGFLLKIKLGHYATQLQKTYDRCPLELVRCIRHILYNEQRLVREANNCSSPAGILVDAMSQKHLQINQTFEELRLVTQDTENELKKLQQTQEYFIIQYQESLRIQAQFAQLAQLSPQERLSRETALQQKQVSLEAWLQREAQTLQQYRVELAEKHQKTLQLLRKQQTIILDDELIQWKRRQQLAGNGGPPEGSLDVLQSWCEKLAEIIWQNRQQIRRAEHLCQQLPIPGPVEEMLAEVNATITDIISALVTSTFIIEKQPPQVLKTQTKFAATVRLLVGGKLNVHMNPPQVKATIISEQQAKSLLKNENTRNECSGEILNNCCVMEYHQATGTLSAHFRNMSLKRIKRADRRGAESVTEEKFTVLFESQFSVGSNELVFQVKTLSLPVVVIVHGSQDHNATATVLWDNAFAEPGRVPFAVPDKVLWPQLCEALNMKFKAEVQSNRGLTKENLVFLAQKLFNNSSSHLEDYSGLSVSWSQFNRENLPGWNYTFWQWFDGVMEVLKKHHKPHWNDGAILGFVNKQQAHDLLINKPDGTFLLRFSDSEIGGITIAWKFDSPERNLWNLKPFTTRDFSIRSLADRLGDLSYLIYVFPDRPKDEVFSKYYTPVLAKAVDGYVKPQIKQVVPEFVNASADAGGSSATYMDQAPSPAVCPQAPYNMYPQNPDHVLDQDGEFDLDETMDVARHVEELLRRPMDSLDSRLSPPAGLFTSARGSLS
Outline: as §1

SMILES	Ki [1] [nM]	Ki [2] [nM]
NCCCC[C@H](NC(=O)c1cc2cc(C(F)(F)P(=O)(O)O)ccc2[nH]1)C(=O)N1CCC[C@H]1C(=O)N1CCc2ccccc2C1 [Compound 9, ((2-(((S)-6-amino-1-oxo-1-((S)-2-(1,2,3,4-tetrahydroisoquinoline-2-carbonyl)pyrrolidin-1-yl)hexan-2-yl)carbamoyl)-1H-indol-5-yl)difluoromethyl)phosphonic acid]	1000 to 10000	> 10000
CC(C)(C)[C@H](NC(=O)c1cc2cc(C(F)(F)P(=O)(O)O)ccc2s1)C(=O)N1C[C@H](OCc2ccccc2)C[C@H]1C(=O)Nc1ncc(-c2ccccc2)s1 [Compound 203, ((2-(((S)-1-((2S,4R)-4-(benzyloxy)-2-((5-phenylthiazol-2-yl)carbamoyl)pyrrolidin-1-yl)-3,3-dimethyl-1-oxobutan-2-yl)carbamoyl)benzo[b]thiophen-5-yl)difluoromethyl)phosphonic acid]	1000 to 10000	100 to 1000
CC(C)(C)[C@H](NC(=O)c1cc2cc(C(F)(F)P(=O)(O)O)ccc2s1)C(=O)N1CCC[C@H]1C(=O)N1CC[C@@H]2CNC[C@@H]21 [Compound 79, ((2-(((S)-3,3-dimethyl-1-((S)-2-((3aR,6aR)-octahydropyrrolo[3,4-b]pyrrole-1-carbonyl)pyrrolidin-1-yl)-1-oxobutan-2-yl)carbamoyl)benzo[b]thiophen-5-yl)difluoromethyl)phosphonic acid]	> 10000	> 10000
CC(C)(C)[C@H](NC(=O)c1cc2cc(C(F)(F)P(=O)(O)O)ccc2s1)C(=O)N1CCC[C@H]1C(=O)Nc1ccc(-c2ccccc2)s1 [Compound 305, ((2-(((S)-3,3-dimethyl-1-oxo-1-((S)-2-((5-phenylthiophen-2-yl)carbamoyl)pyrrolidin-1-yl)butan-2-yl)carbamoyl)benzo[b]thiophen-5-yl)difluoromethyl)phosphonic acid]	1000 to 10000	100 to 1000
CC(C)(C)[C@H](NC(=O)c1cc2cc(C(F)(F)P(=O)(O)O)ccc2s1)C(=O)N1Cc2ccccc2C1C(=O)N1CCO[C@H](c2ccccc2)C1 (stereo partly drawn) [Compound 141, ((2-(((2S)-3,3-dimethyl-1-oxo-1-(1-((R)-2-phenylmorpholine-4-carbonyl)isoindolin-2-yl)butan-2-yl)carbamoyl)benzo[b]thiophen-5-yl)difluoromethyl)phosphonic acid]	100 to 1000	1000 to 10000
CC(C)(C)[C@H](NC(=O)c1cc2cc(C(F)(F)P(=O)(O)O)ccc2s1)C(=O)N1C[C@H](Oc2ccccc2)C[C@H]1C(=O)Nc1ncc(-c2ccccc2)s1 [Compound 208, ((2-(((S)-3,3-dimethyl-1-oxo-1-((2S,4R)-4-phenoxy-2-((5-phenylthiazol-2-yl)carbamoyl)pyrrolidin-1-yl)butan-2-yl)carbamoyl)benzo[b]thiophen-5-yl)difluoromethyl)phosphonic acid]	1000 to 10000	100 to 1000
CCOC(=O)CO[C@H]1C[C@@H](C(=O)Nc2ncc(-c3ccccc3)s2)N(C(=O)[C@@H](NC(=O)c2cc3cc(C(F)(F)P(=O)(O)O)ccc3s2)C(C)(C)C)C1 [Compound 205, ((2-(((S)-1-((2S,4S)-4-(2-ethoxy-2-oxoethoxy)-2-((5-phenylthiazol-2-yl)carbamoyl)pyrrolidin-1-yl)-3,3-dimethyl-1-oxobutan-2-yl)carbamoyl)benzo[b]thiophen-5-yl)difluoromethyl)phosphonic acid]	1000 to 10000	1000 to 10000
CC(C)(C)[C@H](NC(=O)c1cc2cc(C(F)(F)P(=O)(O)O)ccc2[nH]1)C(=O)N1CCC[C@H]1c1nc(-c2ccccc2)cs1 [Compound 19, ((2-(((S)-3,3-dimethyl-1-oxo-1-((S)-2-(4-phenylthiazol-2-yl)pyrrolidin-1-yl)butan-2-yl)carbamoyl)-1H-indol-5-yl)difluoromethyl)phosphonic acid]	1000 to 10000	> 10000
CC(=O)N1CC[C@@H]2CN(C(=O)[C@@H]3CCCN3C(=O)[C@@H](NC(=O)c3cc4cc(C(F)(F)P(=O)(O)O)ccc4s3)C(C)(C)C)C[C@@H]21 [Compound 87, ((2-(((S)-1-((S)-2-((3aR,6aR)-1-acetyloctahydropyrrolo[3,4-b]pyrrole-5-carbonyl)pyrrolidin-1-yl)-3,3-dimethyl-1-oxobutan-2-yl)carbamoyl)benzo[b]thiophen-5-yl)difluoromethyl)phosphonic acid]	> 10000	> 10000
CC(=O)N1C[C@@H]2CCN(C(=O)[C@@H]3CCCN3C(=O)[C@@H](NC(=O)c3cc4cc(C(F)(F)P(=O)(O)O)ccc4s3)C(C)(C)C)[C@@H]2C1 [Compound 92, ((2-(((S)-1-((S)-2-((3aS,6aS)-5-acetyloctahydropyrrolo[3,4-b]pyrrole-1-carbonyl)pyrrolidin-1-yl)-3,3-dimethyl-1-oxobutan-2-yl)carbamoyl)benzo[b]thiophen-5-yl)difluoromethyl)phosphonic acid]	> 10000	> 10000

More lines, now with the values ahead:

Ki [1] [nM]	Ki [2] [nM]	SMILES
1000 to 10000	> 10000	CC(C)(C)[C@H](NC(=O)c1cc2cc(C(F)(F)P(=O)(O)O)ccc2s1)C(=O)N1CCC[C@H]1C(=O)N1CCC2(CCCC2)C1 [Compound 59, ((2-(((S)-1-((S)-2-(2-azaspiro[4.4]nonane-2-carbonyl)pyrrolidin-1-yl)-3,3-dimethyl-1-oxobutan-2-yl)carbamoyl)benzo[b]thiophen-5-yl)difluoromethyl)phosphonic acid]
1000 to 10000	> 10000	CC(C)(C)[C@H](NC(=O)c1cc2cc(C(F)(F)P(=O)(O)O)ccc2s1)C(=O)N1CCC[C@H]1C(=O)N1CCc2ccc(Cl)cc2C1 [Compound 68, ((2-(((S)-1-((S)-2-(7-chloro-1,2,3,4-tetrahydroisoquinoline-2-carbonyl)pyrrolidin-1-yl)-3,3-dimethyl-1-oxobutan-2-yl)carbamoyl)benzo[b]thiophen-5-yl)difluoromethyl)phosphonic acid]
1000 to 10000	> 10000	CC(=O)N1CCN(C(=O)[C@@H]2CCCN2C(=O)[C@@H](NC(=O)c2cc3cc(C(F)(F)P(=O)(O)O)ccc3s2)C(C)(C)C)C[C@@H]1c1ccccc1 [Compound 167, ((2-(((S)-1-((S)-2-((S)-4-acetyl-3-phenylpiperazine-1-carbonyl)pyrrolidin-1-yl)-3,3-dimethyl-1-oxobutan-2-yl)carbamoyl)benzo[b]thiophen-5-yl)difluoromethyl)phosphonic acid]
100 to 1000	1000 to 10000	CC[C@H](NC(=O)c1cc2cc(C(F)(F)P(=O)(O)O)ccc2s1)C(=O)N1CCC[C@H]1C(=O)N1CCO[C@H](c2ccccc2)C1 [Compound 146, (difluoro(2-(((S)-1-oxo-1-((S)-2-((R)-2-phenylmorpholine-4-carbonyl)pyrrolidin-1-yl)butan-2-yl)carbamoyl)benzo[b]thiophen-5-yl)methyl)phosphonic acid]
100 to 1000	1000 to 10000	CC(C)(C)[C@H](NC(=O)c1cc2cc(C(F)(F)P(=O)(O)O)ccc2s1)C(=O)N1CCCC[C@H]1C(=O)N1CCC[C@H](c2ccccc2)C1 [Compound 180, ((2-(((S)-3,3-dimethyl-1-oxo-1-((S)-2-((R)-3-phenylpiperidine-1-carbonyl)piperidin-1-yl)butan-2-yl)carbamoyl)benzo[b]thiophen-5-yl)difluoromethyl)phosphonic acid]
